Results reported in the supplement of paper PMC11208160.

Assay: recombinant UMI read abundance after kanamycin selection (control-corrected) (log10(CPM+1)); higher = more efficient recombination; extreme values may be limits of the assay; sequences stand for … in AGTGCAGAGAAAATCGGCCAGTTTTCTCTGCCTGCAGTCCGCATGCCGTGGGACCCCTTGGGTTCTAACCTGTTGCCTAGATTTATGCAGCGGACTGCCTTTCTCCCAAAGTGATAAACCGG…AGGTTGGTTTCACT; site = the 11-nt donor
How it was run: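 Two replicates each of selected and unselected plating were used in this pooled Escherichia coli screen of donor and donor-binding-loop pairs for the IS621 bridge recombinase. Selection was with IPTG (0.07 mM) and kanamycin. Counts of recombinant UMIs, amplified across the donor–target junction, were converted to CPM, averaged, scaled by control-derived factors and reported as log10(CPM+1).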
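Note: IS621 bridge recombinase in Escherichia coli cells against a fixed T5 target plasmid.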

TCCTCCGCATGGACCGGTTTTCCCGGTAATCCGTATTTGCG (site TCCGCCGCTCG)
recombinant UMI read abundance (log10): 0

TCCTCCGCATGGACCGGTTTTCCCGGTAATCCGTATTTGCG (site TCCTCCGCTCG)
recombinant UMI read abundance (log10): 0.0201

TCCTCCTCATGGACCGGTTTTCCCGGTAATCCGTATTTGCC (site TCCTCCTCTGG)
recombinant UMI read abundance (log10): 0

TCCTTGACATGGACCGGTTTTCCCGGTAATCCGTATTTGCT (site TACTTGACTAG)
recombinant UMI read abundance (log10): 0.397

TCCTTGACATGGACCGGTTTTCCCGGTAATCCGTATTTGCT (site TCCTTGACTAG)
recombinant UMI read abundance (log10): 0

TCCTTGACATGGACCGGTTTTCCCGGTAATCCGTATTTGCT (site TGCTTGACTAG)
recombinant UMI read abundance (log10): 0

TCCTTGACATGGACCGGTTTTCCCGGTAATCCGTATTTGCT (site TTCTTGACTAG)
recombinant UMI read abundance (log10): 0

TCGAAGCCATGGACCGGTTTTCCCGGTAATCCGTATTTGGG (site ACGAAGCCTCC)
recombinant UMI read abundance (log10): 0.0545

TCGAAGCCATGGACCGGTTTTCCCGGTAATCCGTATTTGGG (site CCGAAGCCTCC)
recombinant UMI read abundance (log10): 0.0131

TCGAAGCCATGGACCGGTTTTCCCGGTAATCCGTATTTGGG (site GCGAAGCCTCC)
recombinant UMI read abundance (log10): 0.0961

TCGAAGCCATGGACCGGTTTTCCCGGTAATCCGTATTTGGG (site TCGAAGCCTCC)
recombinant UMI read abundance (log10): 0.0129

TCGAATACATGGACCGGTTTTCCCGGTAATCCGTATTTGAG (site TCGAATACTCT)
recombinant UMI read abundance (log10): 1.44

TCGACAGCATGGACCGGTTTTCCCGGTAATCCGTATTTGTA (site TCGACAGCTTA)
recombinant UMI read abundance (log10): 1.02

TCGACATCATGGACCGGTTTTCCCGGTAATCCGTATTTGCG (site TCGACATCTCG)
recombinant UMI read abundance (log10): 0.266

TCGACCGCATGGACCGGTTTTCCCGGTAATCCGTATTTGCG (site TCAACCGCTCG)
recombinant UMI read abundance (log10): 0.00755

TCGACCGCATGGACCGGTTTTCCCGGTAATCCGTATTTGCG (site TCCACCGCTCG)
recombinant UMI read abundance (log10): 0

TCGACCGCATGGACCGGTTTTCCCGGTAATCCGTATTTGCG (site TCGACCGCTCG)
recombinant UMI read abundance (log10): 0.0218

TCGACCGCATGGACCGGTTTTCCCGGTAATCCGTATTTGCG (site TCTACCGCTCG)
recombinant UMI read abundance (log10): 0.0287

TCGACCTCATGGACCGGTTTTCCCGGTAATCCGTATTTGGA (site TCGACCTCTTC)
recombinant UMI read abundance (log10): 0.524

TCGAGAGCATGGACCGGTTTTCCCGGTAATCCGTATTTGGC (site TCGAGAGCTGC)
recombinant UMI read abundance (log10): 1.86

TCGCACACATGGACCGGTTTTCCCGGTAATCCGTATTTGGG (site TCGCACACTCC)
recombinant UMI read abundance (log10): 0.0145

TCGCAGACATGGACCGGTTTTCCCGGTAATCCGTATTTGCG (site TCGCAGACTCG)
recombinant UMI read abundance (log10): 0.0105

TCGCAGCCATGGACCGGTTTTCCCGGTAATCCGTATTTGCT (site TCGCAGCCTAG)
recombinant UMI read abundance (log10): 0

TCGCCATCATGGACCGGTTTTCCCGGTAATCCGTATTTGGC (site GAAGGCCCTAG)
recombinant UMI read abundance (log10): 0

TCGCGTACATGGACCGGTTTTCCCGGTAATCCGTATTTGGG (site TCGCGTACTCC)
recombinant UMI read abundance (log10): 0.0193

TCGCTAGCATGGACCGGTTTTCCCGGTAATCCGTATTTGCT (site TCGCTAGCTAG)
recombinant UMI read abundance (log10): 0

TCGCTCTCATGGACCGGTTTTCCCGGTAATCCGTATTTGGC (site TCGCTCTCTGC)
recombinant UMI read abundance (log10): 0

TCGCTGACATGGACCGGTTTTCCCGGTAATCCGTATTTGTA (site TCGCTGACTTA)
recombinant UMI read abundance (log10): 1.3

TCGGACCCATGGACCGGTTTTCCCGGTAATCCGTATTTGGG (site TCGGACCCTCC)
recombinant UMI read abundance (log10): 0.036

TCGGACCCATGGACCGGTTTTCCCGGTAATCCGTATTTGTT (site TCGGACCCTAA)
recombinant UMI read abundance (log10): 0.013

TCGGTAGCATGGACCGGTTTTCCCGGTAATCCGTATTTGTG (site TCGGTAGCTCA)
recombinant UMI read abundance (log10): 0.629

TCGTACGCATGGACCGGTTTTCCCGGTAATCCGTATTTGCC (site TCGTACGCTGG)
recombinant UMI read abundance (log10): 0

TCGTATCCATGGACCGGTTTTCCCGGTAATCCGTATTTGAC (site TCGTATCCTGT)
recombinant UMI read abundance (log10): 0

TCGTCACCATGGACCGGTTTTCCCGGTAATCCGTATTTGTA (site TCGTCACCTTA)
recombinant UMI read abundance (log10): 0.0393

TCGTGCACATGGACCGGTTTTCCCGGTAATCCGTATTTGAC (site TCGTGCACTGT)
recombinant UMI read abundance (log10): 1.93

TCGTTCGCATGGACCGGTTTTCCCGGTAATCCGTATTTGCT (site TCGTTCGCTAG)
recombinant UMI read abundance (log10): 0

TCTAAGTCATGGACCGGTTTTCCCGGTAATCCGTATTTGCA (site TCTAAGTCTTG)
recombinant UMI read abundance (log10): 0.436

TCTAGAACATGGACCGGTTTTCCCGGTAATCCGTATTTGAG (site ACTAGAACTCT)
recombinant UMI read abundance (log10): 0.00743

TCTAGAACATGGACCGGTTTTCCCGGTAATCCGTATTTGAG (site CCTAGAACTCT)
recombinant UMI read abundance (log10): 0.0482

TCTAGAACATGGACCGGTTTTCCCGGTAATCCGTATTTGAG (site GCTAGAACTCT)
recombinant UMI read abundance (log10): 0

TCTAGAACATGGACCGGTTTTCCCGGTAATCCGTATTTGAG (site TCTAGAACTCT)
recombinant UMI read abundance (log10): 0.00301

TCTATGACATGGACCGGTTTTCCCGGTAATCCGTATTTGTG (site TCTATGACTCA)
recombinant UMI read abundance (log10): 0.00894

TCTGGACCATGGACCGGTTTTCCCGGTAATCCGTATTTGAC (site TCTGGACCTGT)
recombinant UMI read abundance (log10): 0

TCTGGCGCATGGACCGGTTTTCCCGGTAATCCGTATTTGCC (site TCTGGCGCTGG)
recombinant UMI read abundance (log10): 0

TCTTCCGCATGGACCGGTTTTCCCGGTAATCCGTATTTGAT (site TCTTCCGCTAT)
recombinant UMI read abundance (log10): 0.00526

TCTTCGGCATGGACCGGTTTTCCCGGTAATCCGTATTTGGC (site TCTTCGGCTGC)
recombinant UMI read abundance (log10): 0

TGAAGCTCATGGACCGGTTTTCCCGGTAATCCGTATTTGGG (site TGAAGCTCTCC)
recombinant UMI read abundance (log10): 0.0156

TGACAACCATGGACCGGTTTTCCCGGTAATCCGTATTTGCC (site TGACAACCTGG)
recombinant UMI read abundance (log10): 0

TGACACCCATGGACCGGTTTTCCCGGTAATCCGTATTTGAA (site TGACACCCTTT)
recombinant UMI read abundance (log10): 0.0711

TGACCGGCATGGACCGGTTTTCCCGGTAATCCGTATTTGGC (site TGACCGGCTGC)
recombinant UMI read abundance (log10): 1.25

TGACCGGCATGGACCGGTTTTCCCGGTAATCCGTATTTGGC (site TGCCCGGCTGC)
recombinant UMI read abundance (log10): 0

TGACCGGCATGGACCGGTTTTCCCGGTAATCCGTATTTGGC (site TGGCCGGCTGC)
recombinant UMI read abundance (log10): 0

TGACCGGCATGGACCGGTTTTCCCGGTAATCCGTATTTGGC (site TGTCCGGCTGC)
recombinant UMI read abundance (log10): 0

TGACGGTCATGGACCGGTTTTCCCGGTAATCCGTATTTGAA (site TGACGGTCTTT)
recombinant UMI read abundance (log10): 1.52

TGACTATCATGGACCGGTTTTCCCGGTAATCCGTATTTGCC (site TGACTATCTGG)
recombinant UMI read abundance (log10): 1.54

TGAGCTACATGGACCGGTTTTCCCGGTAATCCGTATTTGCC (site TGAGCTACTGG)
recombinant UMI read abundance (log10): 0.451

TGAGCTTCATGGACCGGTTTTCCCGGTAATCCGTATTTGTA (site TGAGCTTCTTA)
recombinant UMI read abundance (log10): 1.92

TGAGGCACATGGACCGGTTTTCCCGGTAATCCGTATTTGGT (site TGAGGCACTAC)
recombinant UMI read abundance (log10): 0.463

TGAGGTCCATGGACCGGTTTTCCCGGTAATCCGTATTTGAA (site TGAGGTCCTTT)
recombinant UMI read abundance (log10): 0.00722

TGAGTCACATGGACCGGTTTTCCCGGTAATCCGTATTTGAC (site TGAGTCACTGT)
recombinant UMI read abundance (log10): 2.61

TGATAGACATGGACCGGTTTTCCCGGTAATCCGTATTTGCC (site AGATAGACTGG)
recombinant UMI read abundance (log10): 1.96

TGATAGACATGGACCGGTTTTCCCGGTAATCCGTATTTGCC (site CGATAGACTGG)
recombinant UMI read abundance (log10): 2.02

TGATAGACATGGACCGGTTTTCCCGGTAATCCGTATTTGCC (site GGATAGACTGG)
recombinant UMI read abundance (log10): 0

TGATAGACATGGACCGGTTTTCCCGGTAATCCGTATTTGCC (site TGATAGACTGG)
recombinant UMI read abundance (log10): 2.54

TGATCCTCATGGACCGGTTTTCCCGGTAATCCGTATTTGCT (site CGATCATCTAG)
recombinant UMI read abundance (log10): 0.523

TGATCCTCATGGACCGGTTTTCCCGGTAATCCGTATTTGCT (site TGATCCTCTAG)
recombinant UMI read abundance (log10): 1.81

TGATGAGCATGGACCGGTTTTCCCGGTAATCCGTATTTGGG (site TAATGAGCTCC)
recombinant UMI read abundance (log10): 0.0122

TGATGAGCATGGACCGGTTTTCCCGGTAATCCGTATTTGGG (site TCATGAGCTCC)
recombinant UMI read abundance (log10): 0.0102

TGATGAGCATGGACCGGTTTTCCCGGTAATCCGTATTTGGG (site TGATGAGCTCC)
recombinant UMI read abundance (log10): 0.403

TGATGAGCATGGACCGGTTTTCCCGGTAATCCGTATTTGGG (site TTATGAGCTCC)
recombinant UMI read abundance (log10): 0.0217

TGATTAGCATGGACCGGTTTTCCCGGTAATCCGTATTTGGG (site TGATTAGCTCC)
recombinant UMI read abundance (log10): 0

TGCACCACATGGACCGGTTTTCCCGGTAATCCGTATTTGCT (site TGCACCACTAG)
recombinant UMI read abundance (log10): 1.3

TGCACGGCATGGACCGGTTTTCCCGGTAATCCGTATTTGTT (site TGCACGGCTAA)
recombinant UMI read abundance (log10): 0.724

TGCCACCCATGGACCGGTTTTCCCGGTAATCCGTATTTGTT (site AGCCACCCTAA)
recombinant UMI read abundance (log10): 0.00473

TGCCACCCATGGACCGGTTTTCCCGGTAATCCGTATTTGTT (site CGCCACCCTAA)
recombinant UMI read abundance (log10): 0.0165
